Test results published in patent US5837718A, “Imidazole-derivatives having agonistic or antagonistic activity on the histamine H3-receptor” (Seed Capital Investment (SCI) B.V., priority 1995, dated 1998).
Like-named read-outs stand apart in the source and are kept apart here.

Key:
Format in all cases: cell-based
histamine H3 -receptor [1] = biological target: T1, histamine H3 -receptor (Cavia porcellus, UniProt Q9JI35); test: Antagonistic activity on the H3-receptor, ileum guinea pig
T1 construct: ileum guinea pig; from tissue; host or cells: guinea pig ileum
T1 sequence (Q9JI35 whole entry): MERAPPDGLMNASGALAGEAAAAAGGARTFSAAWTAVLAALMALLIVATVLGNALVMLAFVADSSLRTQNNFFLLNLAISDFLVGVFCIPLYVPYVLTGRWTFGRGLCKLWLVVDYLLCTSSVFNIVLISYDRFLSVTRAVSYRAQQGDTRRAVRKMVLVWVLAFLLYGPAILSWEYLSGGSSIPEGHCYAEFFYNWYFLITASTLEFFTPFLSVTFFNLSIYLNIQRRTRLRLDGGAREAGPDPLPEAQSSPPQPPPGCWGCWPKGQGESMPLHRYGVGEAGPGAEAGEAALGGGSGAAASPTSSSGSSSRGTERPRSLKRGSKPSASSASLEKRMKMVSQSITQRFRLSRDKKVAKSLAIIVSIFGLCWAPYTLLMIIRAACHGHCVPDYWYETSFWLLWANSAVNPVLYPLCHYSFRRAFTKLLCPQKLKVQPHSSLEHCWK
Method: (§1) The agonistics and antagonistics activities on the H3 -receptor of the various compounds were determined compared to histamine. The test methods used therefor are described in Van der Werf et al., Agents and Actions 20, 3/4 (1987) p. 239-243 and Menkveld et al., European Journal of Pharmacology, 186 (1990) p. 343-347.

histamine H3 -receptor [2] = test: Antagonistic activity on the H3-receptor, test preparation not stated; details: Example 6 table, test method not stated
Method: as §1

histamine H3 -receptor [3] = biological target: T1, histamine H3 -receptor; test: Agonistic activity on the H3-receptor, ileum guinea pig; details: Table 3, agonistic activity, read-out: pD2 (converted)
Method: (§2) The agonistics and antagonistics activities on the H3 -receptor of the various compounds were determined compared to histamine.

histamine H3 -receptor [4] = test: Agonistic activity on the H3-receptor, test preparation not stated; details: in words
Method: as §1

histamine H3 -receptor [5] = biological target: T2, histamine H3 -receptor (Rattus norvegicus, UniProt Q9QYN8); test: Antagonistic activity on the H3-receptor, rat cortex; details: Table 2, antagonistic activity, read-out: pA2 (converted)
T2 construct: Van der Werf et al., Agents and Actions 20, 3/4 (1987) p; 239-243; from tissue
T2 sequence (Q9QYN8 whole entry): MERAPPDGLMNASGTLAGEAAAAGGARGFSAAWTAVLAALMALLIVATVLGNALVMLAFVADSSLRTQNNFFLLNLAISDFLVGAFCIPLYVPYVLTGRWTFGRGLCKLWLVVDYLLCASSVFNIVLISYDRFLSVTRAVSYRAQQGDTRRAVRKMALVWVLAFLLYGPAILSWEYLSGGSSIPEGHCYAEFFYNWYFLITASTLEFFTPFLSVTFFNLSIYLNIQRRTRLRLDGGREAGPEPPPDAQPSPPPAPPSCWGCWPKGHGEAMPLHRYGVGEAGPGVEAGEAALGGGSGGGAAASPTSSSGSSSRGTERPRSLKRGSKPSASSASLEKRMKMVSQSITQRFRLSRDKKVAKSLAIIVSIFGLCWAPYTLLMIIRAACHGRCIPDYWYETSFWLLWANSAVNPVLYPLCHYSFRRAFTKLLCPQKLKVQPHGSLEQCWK
Method: as §1

histamine H3 -receptor [6] = biological target: T2, histamine H3 -receptor; test: Agonistic activity on the H3-receptor, rat cortex; details: Table 3, agonistic activity, read-out: pD2 (converted)
Method: as §2

[7] = Table 2, antagonistic activity, ileum guinea pig, read-out: pA2 (converted)

| SMILES | pA2 (histamine H3 -receptor [2]) | Kb (histamine H3 -receptor [1]) [nM] | also measured |
| --- | --- | --- | --- |
| NC(=NCCCCc1ccccc1)SCCCc1cnc[nH]1 [VUF 4571, S-[3-(4(5)-imidazolyl)propyl]-N-(4-phenylbutyl)isothiourea] |  |  | Kb (histamine H3 -receptor [1]; [7]): 3.98 nM |
| N=C(NCCc1ccc(Br)cc1)SCCCc1c[nH]cn1 [VUF 4598, N-[2-(4-bromophenyl)ethyl]-S-[3-(4(5)-imidazolyl)propyl] isothiourea.2HBr] | 9.0 |  |  |
| N=C(NCc1ccc(F)cc1)SCCCc1c[nH]cn1 [VUF 4650, N-(4-fluorobenzyl)-S-[3-(4(5)-imidazolyl)propyl]isothiourea.2HBr] | 9.38 |  |  |
| N=C(NCc1ccc(Br)cc1)SCCCc1c[nH]cn1 [VUF 4651, N-(4-bromobenzyl)-S-[3-(4(5)-imidazolyl)propyl]isothiourea.2HBr] | 9.77 |  |  |
| N=C(NCc1ccc(I)cc1)SCCCc1c[nH]cn1 [VUF 4652, N-(4-iodobenzyl)-S-[3-(4(5)-imidazolyl)propyl]isothiourea.2HBr] | 9.21 |  |  |
| Cc1ccc(CNC(=N)SCCCc2c[nH]cn2)cc1 [VUF 4653, S-[3-(4(5)-imidazolyl)propyl]-N-(4-methylbenzyl) isothiourea.2HBr] | 9.36 |  |  |
| COc1ccc(CNC(=N)SCCCc2c[nH]cn2)cc1 [VUF 4654] | 9.39 |  |  |
| N=C(NCc1ccc(Cl)c(Cl)c1)SCCCc1c[nH]cn1 [VUF 4656, N-(3,4-dichlorobenzyl)-S-[3-(4(5)-imidazolyl)propyl] isothiourea.2HBr] | 8.96 |  |  |
| N=C(NCCc1ccc(Cl)cc1)SCCCc1c[nH]cn1 [VUF 4657] | 9.2 |  |  |
| Cc1ccc(CCNC(=N)SCCCc2c[nH]cn2)cc1 [VUF 4658, S-[3-(4(5)-imidazolyl)propyl]-N-[2-(4-methylphenyl)ethyl]isothiourea.2HBr] | 8.4 |  |  |
| COc1ccc(CCNC(=N)SCCCc2c[nH]cn2)cc1 [VUF 4659] | 8.3 |  |  |
| N=C(NCc1ccccc1)SCCCCc1c[nH]cn1 [VUF 4661, N-benzyl-S-[4-(4(5)-imidazolyl)butyl]isothiourea dipicrate] | 8.72 |  |  |
| N=C(NCCc1ccccc1)SCCCCc1c[nH]cn1 [VUF 4662, N-(2-phenylethyl)-S-[4-(4(5)-imidazolyl)butyl]isothiourea dipicrate] | 8.13 |  |  |
| N=C(N)SCCc1c[nH]cn1 [VUF 8325, S-[2-(4-imidazolyl)ethyl]isothiourea] |  |  | EC50 (histamine H3 -receptor [3]): 7.94 nM; agonistic activity (histamine H3 -receptor [4]): strong agonistic activity |
| N=C(Nc1ccccc1)SCCc1c[nH]cn1 [VUF 8397] |  |  | Kb (histamine H3 -receptor [5]): 100 nM |
| N=C(NCCSCc1ccccc1)SCCc1c[nH]cn1 [VUF 8404] |  | 39.8 |  |
| N=C(NCCCc1c[nH]cn1)NCCSCc1ccccc1 [VUF 8405] |  |  | Kb (histamine H3 -receptor [1]; [7]): 12.6 nM |

| SMILES | pA2 (histamine H3 -receptor [2]) | Kb (histamine H3 -receptor [1]) [nM] | also measured |
| --- | --- | --- | --- |
| N=C(NCCSC(c1ccccc1)c1ccccc1)SCCc1c[nH]cn1 [VUF 8409] |  |  | Kb (histamine H3 -receptor [1]; [7]): 251 nM |
| N=C(NCCSCc1ccccc1)SCCCc1c[nH]cn1 [VUF 8414, N-[2-(benzylthio)ethyl]-S-[3-(imidazol-4-yl)propyl]isothiourea] |  |  | Kb (histamine H3 -receptor [1]; [7]): 2.51 nM |
| CNC(=N)SCCc1c[nH]cn1 [VUF 8621] |  |  | EC50 (histamine H3 -receptor [3]): 50.1 nM |
| N=C(NCCc1c[nH]cn1)Nc1ccccc1 [VUF 9006, N-[2-(imidazol-4-yl)ethyl]-N'-phenyl guanidine dipicrate] |  |  | Kb (histamine H3 -receptor [1]; [7]): 1580 nM |
| N=C(NCCc1ccccc1)NCCc1cnc[nH]1 [VUF 9007, N-[2-(imidazol-4-yl)ethyl]-N'-phenyl-ethylguanidine dipicrate] |  |  | Kb (histamine H3 -receptor [1]; [7]): 501 nM |
| N=C(NCc1ccccc1)SCCc1c[nH]cn1 [VUF 9028, N-benzyl-S-[2-(imidazol-4-yl)ethyl]isothiourea dipicrate] |  | 15.8 |  |
| N=C(NCCc1ccccc1)SCCc1c[nH]cn1 [VUF 9029, S-[2-(imidazol-4-yl)ethyl]-N-(2-phenylethyl)-isothiourea] |  | 10 |  |
| N=C(NCCCc1ccccc1)SCCc1c[nH]cn1 [VUF 9030] |  | 25.1 |  |
| N=C(NCCCCc1ccccc1)SCCc1c[nH]cn1 [VUF 9031] |  | 20 |  |
| CN=C(NCCc1ccccc1)SCCc1c[nH]cn1 [VUF 9051] |  | 15.8 |  |
| N=C(NCc1ccccc1)SCCCc1c[nH]cn1 [VUF 9107, N-benzyl-S-[3-(4(5)-imidazolyl)propyl]isothiourea] |  | 1.58 |  |
| N=C(NCCc1ccccc1)SCCCc1c[nH]cn1 [VUF 9151, S-[3-(4(5)-imidazolyl)propyl]-N-(2-phenylethyl)isothiourea] |  | 1.58 |  |
| N=C(NCCCc1ccccc1)SCCCc1c[nH]cn1 [VUF 9152, S-[3-(4(5)-imidazolyl)propyl]-N-(3-phenylpropyl)isothiourea] |  | 5.01 |  |
| NC(=NCc1ccc(Cl)cc1)SCCCc1cnc[nH]1 [VUF 9153, S-[3-(4(5)-imidazolyl)propyl]-N-(4-chlorobenzyl)isothiourea] |  | 0.126 |  |
| N=C(NCC1CCCCC1)SCCCc1c[nH]cn1 [VUF 9163, N-cyclohexylmethyl-S-[3-(4(5)-imidazolyl)propyl]isothiourea] |  |  | Kb (histamine H3 -receptor [1]; [7]): 1.58 nM |
| N=C(N)NCCc1c[nH]cn1 [VUF 83100] |  |  | EC50 (histamine H3 -receptor [6]): 39.8 nM |
